One experiment has as its target T1, AuroraB (Homo sapiens, UniProt Q96GD4).
T1 construct: 20 μL of AuroraB FL His; His
In words: AuroraB Homogeneous Time Resolved Fluorescent (HTRF) kinase assay. Format: biochemical. The following applies: average; ATP 23 μM; read-out: AurB_IC50_IP (uM Avg). As for the experimental part: The AuroraB HTRF assay begins with AuroraB in the presence of ATP phosphorylating the biotinylated peptide Histone H3. The reaction incubates for about 90 min. the reaction is quentched by addition of detection reagents, which stop the reaction by diluting out the enzyme and chelating the metals due to the presence of EDTA. After addition, the assay is incubated for about 60 min to allow detection reagents to equilibrate.
The AuroraB HTRF assay comprises 1 μL of compound in 100% DMSO, 20 μL of ATP and biotinylated Histone H3, and 20 μL of AuroraB FL His for a final volume of 41 μL. The final concentration of Histone H3 is 0.1 μM. The final concentration of ATP is 23 μM (Km(app)=23 μM+/−2.6) and the final concentration of AuroraB is 400 pM. Buffer conditions are as follows: 50 mM HEPES pH 7.5, 5 mM NaCl, 0.5 mM MgCl, 0.5 mM MnCl, 2 mM DTT, 0.05% BSA.
The assay is quenched and stopped with 160 μL of detection reagent. Detection reagents are as follows: Buffer made of 50 mM Tris, pH 7.5, 100 mM NaCl, 3 mM EDTA, 0.05% BSA, 0.1% Tween20. Added to this buffer prior to reading is Steptavidin allophycocyanin (SA-APC) at a final conc in the assay of 0.001 mg/mL, and europilated anti-phosphoHistoneH3 Ab (Eu-anti-HisH3) at a final conc of 0.064 nM.
The assay plate is read in either a Discovery or a RubyStar. The eu-anti-HisH3 is excited at 320 nm and emits at 615 nm to excite the SA-APC which in turn emits at 655 nm. The ratio of SA-APC at 655 nm (excited due to close proximity to the Eu-anti-HisH3 because of phosphorylation of the peptide) to free Eu-anti-HisH3 at 615 nm will give substrate phosphorylation.
Many of the Examples described herein were tested, and fund to be active compounds. Table I includes related biological data, which may be interpreted using the activity gauge below.
(In TR-FRET formats the signal depends on donor and acceptor labels being close together.)

The target in the next experiment is T2, AuroraA-TPX2 (Homo sapiens, UniProt O14965).
T2 construct: 20 μL of AuroraA-TPX2 KD GST; GST
T2 sequence (O14965 133-383 limits assumed): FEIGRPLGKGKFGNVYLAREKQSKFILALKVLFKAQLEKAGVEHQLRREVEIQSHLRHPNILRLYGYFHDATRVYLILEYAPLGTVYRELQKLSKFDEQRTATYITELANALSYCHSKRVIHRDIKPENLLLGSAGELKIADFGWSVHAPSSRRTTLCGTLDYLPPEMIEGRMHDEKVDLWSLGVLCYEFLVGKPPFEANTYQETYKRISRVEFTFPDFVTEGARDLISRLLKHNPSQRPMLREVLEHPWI
T2 sequence (Q9ULW0 1-43 partner limits assumed): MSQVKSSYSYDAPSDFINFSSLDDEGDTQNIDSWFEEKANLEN
In words: AuroraA-TPX2 Homogeneous Time Resolved Fluorescent (HTRF) kinase assay. It is filed as biochemical. The following applies: average; ATP about 1 μM; read-out: AurA_IC50_IP (uM Avg). As to the method: The Aurora-A HTRF assay begins with Aurora-A in the presence of ATP phosphorylating the biotinylated peptide PLK. The reaction incubates for about 120 min. Detection reagents are added to quench the reaction. These agents stop the reaction by diluting out the enzyme and chelating the metals due to the presence of EDTA. After addition, the assay is incubated overnight to allow the detection reagents to equilibrate.
The AuroraA HTRF assay comprises 1 μL of compound in 100% DMSO, 20 μL of ATP and biotinylated PLK, and 20 μL of AuroraA-TPX2 KD GST for a final volume of about 41 μL. The final concentration of PLK is about 1 μM. The final concentration of ATP is about 1 μM (Km(app)=1 μM+/−0.1) and the final concentration of AuroraA is about 5 nM. Buffer conditions are as follows: 60 mM HEPES pH 7.5, 25mM NaCl, 10 mM MgCl, 2 mM DTT, 0.05% BSA.
The assay is quenched and stopped with 160 μL of detection reagent. Detection reagents are as follows: Buffer made of 50 mM Tris, pH 7.5, 100 mM NaCl, 3 mM EDTA, 0.05% BSA, 0.1% Tween20. Added to this buffer prior to reading is Steptavidin allophycocyanin (SA-APC) at a final conc in the assay of 0.0005 mg/mL, and europilated anti-phosphoPLK Ab (Eu-anti-PLK) at a final conc of 0.02 nM.
The assay plate is read in either a Discovery or a RubyStar. The eu-anti-PLK is excited at 320 nm and emits at 615 nm to excite the SA-APC which in turn emits at 655 nm. The ratio of SA-APC at 655 nm (excited due to close proximity to the Eu-anti-PLK because of phosphorylation of the peptide) to free Eu-anti-PLK at 615 nm will give substrate phosphorylation.
Many of the Examples described herein were tested and found to be active compounds. Table I includes related biological data, which may be interpreted using the activity gauge below.

Another experiment relates to HeLa cells. In words: HeLa cell 24 hr ploidy assay. It is filed as cell-based. The following applies: Homo sapiens, 24 hrs treatment, DNA ploidy, average, read-out: 24h_4N Ploidy EC50_IP (uM Avg). As for the experimental part:
The purpose of this assay is to evaluate the ability of selected individual compounds to induce Deoxyribonucleic acid (DNA) content (ploidy) in cells through failed cell division. Cell cycle analysis is a rapid and efficient way to evaluate the status of DNA content (ploidy) of a given cell. HeLa cells (1×10^4 HeLa cells/well) in 100 ul of media (MEM+10% FBS) were plated in 96-well plates (Packard View) and cultured for 24 hrs at 37° C. maintained in a 5% CO2 atmosphere. The following day, cells were treated for 24 hrs with inhibitor compounds (10 pt. Dose ranging from 0.0024-1.25 umol/L). The compounds were serially diluted in DMSO (0.25% final concentration). The cells were fixed (3.7% Formaldehyde and 1% glutaraldehyde) and permeabilized (1×PBS with 1% BSA an d0.2% Triton X-100) in preparation for nuclear staining. The well plates were stained for 45 minutes at RT in the dark using Hoechest 33342 nuclear stain at 0.5 ug.ml (Stock of 10 mg/ml, Invitrogen, Calif., Cat #H3570). The nuclear stain was removed by aspiration and the cells were washed with wash buffer. A Cellomics Array Scan Vti plate reader was used to acquire the DNA ploidy data of the cells using Cell Cycle bioapplication. Numbers for each of “valid cell count/well”, “% of 4N cells” and “% of >4Ncells” were calculated with the assistance of an Activity Base 5.1ca software and dose curves were generated using an XLFit software. With XLFit, final EC50 IP and EC50 transit values, as well as the Max and Min, were calculated for each curve.

The structures appear in SMILES notation.

T1 sequence (Q96GD4 whole entry): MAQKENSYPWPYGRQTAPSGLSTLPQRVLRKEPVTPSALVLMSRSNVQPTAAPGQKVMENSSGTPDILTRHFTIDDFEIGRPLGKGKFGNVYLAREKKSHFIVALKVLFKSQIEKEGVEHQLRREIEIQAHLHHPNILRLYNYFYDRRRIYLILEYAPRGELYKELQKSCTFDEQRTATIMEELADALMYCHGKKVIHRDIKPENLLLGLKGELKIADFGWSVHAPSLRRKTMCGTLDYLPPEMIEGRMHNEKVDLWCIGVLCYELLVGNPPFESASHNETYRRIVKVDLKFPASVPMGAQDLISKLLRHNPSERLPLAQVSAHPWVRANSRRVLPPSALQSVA

Consider `Cc1ccc(-c2nnc(Nc3ccc(Sc4ccnc(-c5cc6ccccc6[nH]5)n4)cc3)c3ccccc23)cn1` [Example 39, N-(4-((2-(1H-indol-2-yl)-4-pyrimidinyl)sulfanyl)phenyl)-4-(6-methyl-3-pyridinyl)-1-phthalazinamine], for which the IC50 at AuroraB was less than 0.1 µM; on AuroraA-TPX2, 0.1 to 0.5 µM. For the same compound, the EC50 with HeLa cells was 0.1 to 0.5 µM.
Regarding `Nc1cc(Sc2ccc(Nc3nnc(-c4ccc(Cl)cc4)c4ccccc34)cc2)ccn1` [Example 27, N-(4-((2-amino-4-pyridinyl)thio)phenyl)-4-(4-chlorophenyl)-1-phthalazinamine], the IC50 was less than 0.1 µM at AuroraB and 0.1 to 0.5 µM on AuroraA-TPX2. Further, the EC50 with HeLa cells lay in the range of 0.1 to 0.5 µM.
As to `Clc1ccc(-c2nnc(Nc3ccc(Oc4ccnc(/C=C/c5ccccc5)n4)cc3)c3ccccc23)cc1` [Example 30, 4-(4-chlorophenyl)-N-(4-((2-((E)-2-phenylethenyl)-4-pyrimidinyl)oxy)phenyl)-1-phthalazinamine], the IC50 on AuroraB was less than 0.1 µM; at AuroraA-TPX2, 0.1 to 0.5 µM. In addition, in the experiment on HeLa cells, the EC50 fell in the range of 0.1 to 0.5 µM.
As for `Clc1ccc(-c2nnc(Nc3ccc(Oc4ccnc(-c5nc6ccccc6[nH]5)c4)cc3)c3ccccc23)cc1` [Example 38, N-(4-((2-(1H-benzimidazol-2-yl)-4-pyridinyl)oxy)phenyl)-4-(4-chlorophenyl)-1-phthalazinamine], the IC50 on AuroraB was less than 0.1 µM; at AuroraA-TPX2, 0.1 to 0.5 µM. Also, the EC50 in the experiment with HeLa cells is less than 0.1 µM.
For the compound `CNC(=O)c1cc(Oc2ccc(Nc3nnc(-c4ccc(Cl)cc4)c4ccccc34)cc2)ccn1` [Example 26, 4-((4-((4-(4-chlorophenyl)-1-phthalazinyl)amino)phenyl)oxy)-N-methyl-2-pyridinecarboxamide], the IC50 at AuroraB and at AuroraA-TPX2 was 0.1 to 0.5 µM in each case. Moreover, the EC50 in the experiment with HeLa cells is 0.1 to 0.5 µM.
Take `Cc1csc(-c2nnc(Nc3ccc(Sc4ccnc(-c5cc6ccccc6[nH]5)n4)cc3)c3ccccc23)c1` [Example 37, N-(4-((2-(1H-indol-2-yl)-4-pyrimidinyl)sulfanyl)phenyl)-4-(4-methyl-2-thiophenyl)-1-phthalazinamine]: the IC50 at AuroraB and at AuroraA-TPX2 was less than 0.1 µM throughout. In addition, the EC50 with HeLa cells was less than 0.1 µM.
Regarding `CNC(=O)c1cc(Sc2ccc(Nc3nnc(-c4ccc(Cl)cc4)c4ccccc34)cc2)ccn1` [Example 25, 4-((4-((4-(4-chlorophenyl)-1-phthalazinyl)amino)phenyl)thio)-N-methyl-2-pyridinecarboxamide], the IC50 on AuroraB was 0.1 to 0.5 µM; on AuroraA-TPX2, 1 to 5 µM. The EC50 in the experiment on HeLa cells was 0.1 to 0.5 µM.
`CNCCNc1nccc(Sc2ccc(Nc3nnc(-c4ccc(Cl)cc4)c4ccccc34)cc2)n1` [Example 34, N-(4-((4-((4-(4-chlorophenyl)-1-phthalazinyl)amino)phenyl)sulfanyl)-2-pyrimidinyl)-N′-methyl-1,2-ethanediamine]: the results for the IC50 on AuroraB and at AuroraA-TPX2 were 0.5 to 1 µM and 1 to 5 µM, respectively. Also, in the experiment with HeLa cells, the EC50 was 0.1 to 0.5 µM.
On the same counts, the results for `OCCNc1nccc(Sc2ccc(Nc3nnc(-c4ccc(Cl)cc4)c4ccccc34)cc2)n1` [Example 32, 2-((4-((4-((4-(4-chlorophenyl)-1-phthalazinyl)amino)phenyl)sulfanyl)-2-pyrimidinyl)amino)ethanol] are less than 0.1 µM, less than 0.1 µM and less than 0.1 µM.

The record behind these values is patent US20110301162A1, “AURORA KINASE MODULATORS AND METHODS OF USE” (AMGEN INC., priority 2008, published 2011).
